Assay results taken from patent US12282027B2, “High-throughput NMR approach for in-membrane protein ligand screening” (University of South Florida, priority 2021, dated 2025).

The compounds below were run against T1, A1R receptor (Homo sapiens, UniProt P30542) (assay: In-membrane WaterLOGSY NMR, 10× diluted A1R in yeast cell membrane (YCM)). Details: 10× diluted A1R in YCM from Pichia pastoris; FIG. 5, FIG. 8.
T1 construct: FLAG (N); His10 (C); TEV protease cleavage site (N); α-Factor peptide (secretion signal) (N); made in house; host or cells: Pichia pastoris
T1 sequence (P30542 1-326): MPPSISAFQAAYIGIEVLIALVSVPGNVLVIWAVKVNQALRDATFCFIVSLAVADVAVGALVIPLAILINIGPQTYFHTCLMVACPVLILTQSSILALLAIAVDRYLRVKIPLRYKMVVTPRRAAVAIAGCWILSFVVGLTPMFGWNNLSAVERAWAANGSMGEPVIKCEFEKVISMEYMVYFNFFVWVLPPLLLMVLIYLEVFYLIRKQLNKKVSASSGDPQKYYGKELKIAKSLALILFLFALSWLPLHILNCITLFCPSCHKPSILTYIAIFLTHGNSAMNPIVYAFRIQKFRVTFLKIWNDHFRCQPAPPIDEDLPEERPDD
Type: binding
Description: The human A1 receptor and A2A receptor were cloned into pPIC9K with an N-terminal Flag tag and a C-terminal His tag. […] The lysed cell pellets were centrifuged at 9,720×g for 30 min to remove all debris and keep the released membrane fraction parts.
At the end of fermentation, the cell pellets were collected after centrifugation at 4,000×g for 15 min at 4° C. and then washed once with 50 mM HEPES, pH 7.4, 100 mM NaCl buffer. The cell pellets were resuspended into Receptor Lysis Buffer (50 mM HEPES buffer, 10% glycerol, 100 mM NaCl, 2.5 mM EDTA) using the ratio of cell pellets to buffer equal to 1:4. […] The disrupted cell pellets were centrifuged at 9,720×g for 30 min at 4° C. to discard unbroken cells and cellular debris.
NMR samples for membranes typically consisted of 270-300 μL volumes of the cell membrane in 50 mM HEPES buffer, 10% glycerol, 100 mM NaCl, 2.5 mM EDTA, doped with 10% D2O and different concentration ligands prepared in DMSO as needed.
STD and WaterLOGSY experiments were conducted at a ^1H frequency of 600 MHz using Varian Inova spectrometer. 5 mm diameter NMR tubes with a sample volume of 270-300 μL were used in all experiments. Solutions were buffered using a HEPES buffer corrected to pH 7.4 and 10% glycerol. The sample preparation is exemplified as follows, the compound (solution in DMSO-d6), 30 μL D2O was added to 240 μL membrane in an Eppendorf tube. The resulting solution was spun to ensure full mixing and transferred to a 5 mm NMR tube before the run. Both STD and WaterLOGSY spectra were recorded for each sample. WaterLOGSY spectra in the absence of protein receptor were recorded.

Compound | WaterLOGSY NOE signal of the ligand (negative NOE = specific binding)
N[C@@H](Cc1ccc(O)c(F)c1)C(=O)O [3-fluorotyrosine] | absence of obvious NOE signals
N[C@@H](Cc1ccc(F)cc1)C(=O)O [4-Fluorophenylalanine] | positive NOEs
CTAP | absence of obvious NOE signals
